Columns and labels:
[1] = 13-week repeat oral dose study in rats; details: rat, in vivo, read-out: NOAEL (no observed adverse effect level)
[2] = Genotoxicity in vitro or in vivo
[3] = 13-week repeat oral dose study in monkeys; details: monkey, in vivo
Excerpt: This dose was defined as the NOAEL in monkeys.

Mouse Brain native H3R = molecular target: T1, Mouse Brain native H3R (Mus musculus, UniProt P58406); experiment: Histamine H3 receptor binding, mouse brain cortex membranes
T1 construct: was performed on mouse brain cortex membranes; from tissue; host or cells: mouse brain cortex membranes

rats = experiment: Acute toxicity in rat; assay type: in vivo; details: for no-effect dose: in vivo
[4] = Stability to oxidation conditions (melting points under nitrogen and oxygen atmosphere); assay type: physicochemical
Description: Melting points of the above salts were also determined under nitrogen and oxygen atmosphere, in order to verify their stability to oxidation conditions.

human H3R [5] = molecular target: T2, human H3R (Homo sapiens, UniProt Q9Y5N1); experiment: [35S]GTPγS specific binding to membranes of CHO cells expressing the human H3R; assay type: biochemical; set-up: expressed in transfected cells; host or cells: CHO cells
human H3R [6] = molecular target: T2, human H3R; experiment: A23187-evoked [3H]arachidonic acid release from CHO cells expressing human H3R; assay type: cell-based; set-up: expressed in transfected cells; host or cells: CHO cells; details: 1 μM, human H3R 300-400 fmol/mg protein
rat H3R = molecular target: T3, rat H3R (Rattus norvegicus, UniProt Q9QYN8); experiment: A23187-evoked [3H]arachidonic acid release from CHO cells expressing rat H3R; assay type: cell-based; details: 1 μM, rat H3R 300-400 fmol/mg protein
T3 construct: expressed in transfected cells; host or cells: CHO cells

mice [7] = experiment: Kainate-induced temporal lobe seizures in mice; assay type: in vivo, mouse
Description: Unilateral injection of kainic acid (1 nmol in […]) into the dorsal hippocampus in mice induces a non-convulsive status that results in spontaneous recurrent focal seizures after 2-3 weeks. Seizures (5 to 20 times per hour in quiet mice) are characterized by a behavioral arrest and/or stereotypies, concomitant with spike and poly-spike discharges recorded in the injected hippocampus. All AEDs tested in this model (valproate, carbamazepine, phenytoin, levetiracetam) are without significant effects, except benzodiazepines which transiently suppress seizures. This model reproduces the behavioral, EEG, pharmacological and histological characteristics of mesial temporal lobe epilepsy, a form of epilepsy which is often drug-resistant in humans. After a recovery period, implanted mice (for EEG recording) were injected with kainic acid. They were EEG recorded at least 3 weeks after injection for selection of animals with consistent hippocampal seizure. Then, after a 20 min reference recording period, selected mice received either 1-[3-[3-(4-chlorophenyl)propoxy]propyl]piperidine monohydrochloride (10 or 20 mg/kg, i.p.) or saline and the recording was continued for 60 min. Treatments were given in a counter balanced order (after a one week washout period between two sessions).

mice [8] = experiment: Scopolamine-induced learning deficit, two-trial object recognition; assay type: in vivo, mouse; details: i.p., scopolamine 0.3 mg/kg i.p.
Description: Lett., 1994, 170, 117-120; Bartolini et al., Biochem. Nehav., 1996, 53, 277-283]. Methods: Mice were allowed to explore a box for 30 min in the presence of two objects. The day after, mice were submitted to two trials spaced by an interval of 60 min. During the first trial (T1), mice were placed in the box containing the two identical objects and the time required by each animal to complete 20 sec of object exploration was determined. Exploration was considered to be directing the nose at a distance closer than 2 cm to the object and/or touching the object. For the second trial (T2), one of the objects presented in the first trial was replaced by and unknown novel object. Mice were placed in the box for 5 min and exploration of each object together with motor activity was determined. The following parameters were measured.

Human H1R = Human H1R (Homo sapiens, UniProt P35367); experiment: Specific [3H]mepyramine binding at recombinant human H1 receptors expressed in HEK293 cells; details: read-out: Ki or IC50, Human H1R
volunteers [9] = experiment: Phase I study of subjective satiety, interaction with olanzapine; assay type: in vivo, human
Description: A single-center, open-label, placebo-controlled phase I study was performed to evaluate the subjective satiety in 6 volunteers. The volunteers enrolled in the study underwent five single day administration periods.

volunteers [10] = experiment: Single ascending dose EEG, psychometric and vigilance study in volunteers; assay type: in vivo, human
Description: A single-center, double-blind, randomized, placebo-controlled, single ascending doses, electroencephalographic study was performed in 36 volunteers. Subjects were consecutively enrolled in groups 1 to 6 (1, 5, 10, 20, 40 or 60 mg). All subjects of each dose group were randomly assigned to receive either 1-[3-[3-(4-chlorophenyl) propoxy]propyl]-piperidine monohydrochloride or placebo, in such a way that 5 subjects received the product and one subject received placebo.
From the EEG spectral analysis performed before treatment, the study subjects could be stratified as microvolted (66%) and normo or grandvolted (33%). The distribution between those subjects with 30-40% slow activity and 20-25% rapid activity (microvolted), and those with 10% slow activity (normovolted) or 60-80% of [alpha]-activity (grandvolted), explains that before drug administration significant differences were elicited for 20-30 Hz and 30-40 Hz activities.

[11] = two hours after single oral 40 mg and 60 mg

T2 sequence (Q9Y5N1 whole entry): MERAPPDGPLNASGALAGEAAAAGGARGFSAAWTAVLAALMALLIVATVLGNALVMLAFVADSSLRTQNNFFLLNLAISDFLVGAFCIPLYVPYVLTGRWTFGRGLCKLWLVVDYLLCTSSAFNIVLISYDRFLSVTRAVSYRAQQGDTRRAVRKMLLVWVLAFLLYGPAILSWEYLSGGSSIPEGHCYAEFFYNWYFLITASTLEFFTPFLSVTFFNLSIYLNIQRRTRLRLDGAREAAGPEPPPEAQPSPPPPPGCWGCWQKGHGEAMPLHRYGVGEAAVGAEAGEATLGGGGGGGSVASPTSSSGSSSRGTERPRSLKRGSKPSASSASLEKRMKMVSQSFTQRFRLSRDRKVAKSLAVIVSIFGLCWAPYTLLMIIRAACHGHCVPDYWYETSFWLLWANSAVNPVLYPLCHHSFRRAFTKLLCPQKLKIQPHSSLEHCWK
T1 sequence (P58406 whole entry): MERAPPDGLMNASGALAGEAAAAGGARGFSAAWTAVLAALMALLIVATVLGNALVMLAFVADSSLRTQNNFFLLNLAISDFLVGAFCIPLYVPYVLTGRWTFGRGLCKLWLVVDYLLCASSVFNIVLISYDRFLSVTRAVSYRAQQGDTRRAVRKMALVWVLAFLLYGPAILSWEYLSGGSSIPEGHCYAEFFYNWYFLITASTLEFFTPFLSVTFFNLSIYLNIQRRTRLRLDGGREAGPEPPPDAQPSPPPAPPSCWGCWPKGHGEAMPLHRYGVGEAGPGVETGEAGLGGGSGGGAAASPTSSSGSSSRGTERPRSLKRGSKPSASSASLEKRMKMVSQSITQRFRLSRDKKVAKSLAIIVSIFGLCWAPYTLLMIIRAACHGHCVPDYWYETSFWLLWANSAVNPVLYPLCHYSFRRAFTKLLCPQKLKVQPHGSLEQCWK
T3 sequence (Q9QYN8 whole entry): as the sequence (P58406 whole entry) above, with A15T, T286A, G290A, H387R, V389I counted along it
Sequence of Human H1R (P35367 whole entry): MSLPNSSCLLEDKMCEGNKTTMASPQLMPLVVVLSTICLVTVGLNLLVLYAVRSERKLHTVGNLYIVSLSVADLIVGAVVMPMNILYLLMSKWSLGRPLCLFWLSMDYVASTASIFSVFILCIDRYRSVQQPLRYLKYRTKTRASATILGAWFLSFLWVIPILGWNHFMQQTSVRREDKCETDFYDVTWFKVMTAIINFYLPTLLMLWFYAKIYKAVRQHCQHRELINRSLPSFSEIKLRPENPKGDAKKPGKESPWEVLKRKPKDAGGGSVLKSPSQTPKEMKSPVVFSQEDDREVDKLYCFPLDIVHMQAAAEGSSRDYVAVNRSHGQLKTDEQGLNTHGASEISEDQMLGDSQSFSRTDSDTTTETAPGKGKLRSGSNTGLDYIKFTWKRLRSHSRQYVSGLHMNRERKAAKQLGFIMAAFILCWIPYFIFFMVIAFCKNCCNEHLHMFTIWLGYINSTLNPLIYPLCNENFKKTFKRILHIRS

## Cl.Clc1ccc(CCCOCCCN2CCCCC2)cc1 [1-[3-[3-(4-chlorophenyl)propoxy]propyl]-piperidine monohydrochloride]
[1]
  NOAEL at 13 weeks: 30 mg/kg/day
[2]
  genotoxicity: not to be genotoxic in vitro or in vivo
[3]
  NOAEL at 13 weeks: 5 mg/kg/day
Mouse Brain native H3R; radioligand [3H](R)α-MeHA
  Ki: 5.7 ± 0.2 nM
Mouse Brain native H3R; radioligand [125I]iodoproxyfan
  Ki: 14 ± 0.1 nM
rats; iv
  no-effect dose: 12 mg/kg
rats; po
  no-effect dose: > 50 mg/kg
rats; oral
  maximum non lethal oral dose: 100 mg/kg
[4]; N2 atmosphere
  Melting point, N2 atmosphere (stability to oxidation conditions): 117.68 °C
[4]; O2 atmosphere
  Melting point, O2 atmosphere (stability to oxidation conditions): 117.54 °C
[4]; melting points under nitrogen vs oxygen atmosphere
  stability to oxidation conditions: better profile of stability to oxidation conditions than other salts
Human H3R [5]; 10 nM, receptor level 1000-1100 fmol/mg protein
  decrease in [35S]GTPγS specific binding: 22%
Human H3R [5]; receptor level 410 fmol/mg protein
  maximal decrease of specific binding of [35S]GTPγS: 25%
Human H3R [6]
  reduction of the A23187-evoked [3H]AA release: 20%
Rat H3R
  decrease of the A23187-evoked [3H]AA release: 40%
Mice [7]; 10 mg/kg, i.p., first 40 min after administration
  cumulated duration and number of hippocampal discharges: reduced
Mice [7]; 20 mg/kg i.p., at 60 min
  cumulated duration of hippocampal discharges: also reduced
Mice [8]; 5 mg/kg
  reversal of scopolamine-induced amnesia: a reversal trend appeared without being significant
Mice [8]; 15 mg/kg
  reversal of scopolamine-induced amnesia: significantly (p=0.0056) reversed
Human H1R
  Ki: 1140 nM
Volunteers [9]; 60 mg
  subjective satiety versus placebo: significantly increased
Volunteers [9]; 60 mg + olanzapine 5 mg
  subjective satiety, association with olanzapine: able to counteract the effect of olanzapine leading to subjective satiety superimposable to placebo
Volunteers [10]; single 60 mg
  flicker, fusion and flicker-fusion thresholds (CFF) vs placebo: higher
Volunteers [10]; single doses 1-60 mg
  ARCI 49: no trend or statistically significant drug effect
  self-perception of sleep (LEEDS), alertness, contentedness and calmness (Bond-Lader VAS), choice reaction time (CRT): no statistically significant drug effect
Volunteers [10]; [11]
  EEG rapid activity (20-30 Hz anterior leads, 16 to 40 Hz posterior leads): statistically significant increase of rapid activity
  median peak position (MPP) on the frequency axis: from 10 to 15-17 Hz and from 11 to 13-15 Hz

Reference: patent US8354430B2, “Monohydrochloride salt of 1-[3-[3-(4-chlorophenyl) propoxy]propyl]-piperidine” (priority 2005, dated 2013)
